Legend:
[1] = system: P. aeruginosa PAO1p cells; assay: Antimicrobial activity of different peptide stretches; conditions: 30 minutes at room temperature; for Antimicrobial effects against P. aeruginosa (relative inactivation): peptide at 3 μM/L (equimolar to AMP)
Method: The bacteria colonies on the agar plates were counted after an overnight incubation at 37° C. Based on the counted cell numbers the antibacterial activity as the relative inactivation in logarithmic units (=log 10N0/Ni with N0=number of untreated cells (of the control) and Ni=number of treated cells, both counted after incubation) is calculated. The reduction in the number of bacteria colonies after treatment with a peptide stretch is indicative for an antimicrobial activity of the peptide stretch, because the bacterial cells are lysed due to the treatment with the peptide stretch. All samples were replicated in four fold.

Salmonella bacteria = assay: In vitro antibacterial activity of STM0016 fusion variants; type: cell-based; conditions: with EDTA 0.5 mM; 10^6 cells/ml; 30 minutes at RT
Method: Exponential growing Gram-negative bacterial cells (OD600 nm=0.6) were 100-fold diluted to a final density of about 10^6 cells/ml in 5 mM HEPES pH 7.4 and incubated for 30 minutes at room temperature without shaking with the different modified OBPgpLYS variants (in Elution Buffer in an end concentration of 1500 nM). After incubation cell suspensions and as a control untreated bacterial cells without any added modified OBPgpLYS variant were diluted three times (respectively 10^5-10^4-10^3 cells/ml) in 1× concentrated PBS buffer and 100 μl of each dilution was plated out on LB-medium. […] All samples were replicated in threefold. Averages +/− standard deviations are represented.
The purification of the fusion proteins and the antimicrobial activity assay was performed as described in Example 1.

Listeria bacteria = assay: In vitro antibacterial activity of Ply511 fusion variants; type: cell-based; conditions: with EDTA 0.5 mM; 10^6 cells/ml; 30 minutes at RT

Molecule: PK2: polycationic peptide KRKKRKKRKRSKRKKRKKRK
- Antimicrobial activity against P. aeruginosa (relative inactivation) [1]: same antimicrobial activity against P. aeruginosa as SMAP-29 used in a concentration of 3 mmol/L
- Antimicrobial effects against P. aeruginosa (relative inactivation) [1]: no or only minor antimicrobial effects

Molecule: PK: polycationic peptide KRKKRKKRK
- Antimicrobial effects against P. aeruginosa (relative inactivation) [1]: no or only minor antimicrobial effects

Molecule: STM0016-Melittin: STM0016 fusion variant with one peptide stretch, Melittin
- Average log reduction, Salmonella (Salmonella bacteria): +/− (+/−: <1 log)

B1: P1y511-BuforinII-Magainin: Ply511 with Buforin II C-terminal of the enzyme, followed by Magainin (protein)
chain: MVKYTVENKIIAGLPKGKLKGANFVIAHETANSKSTIDNEVSYMTRNWKNAFVTHFVGGGGRVVQVANVNYVSWGAGQYANSYSYAQVELCRTSNATTFKKDYEVYCQLLVDLAKKAGIPITLDSGSKTSDKGIKSHKWVADKLGGTTHQDPYAYLSSWGISKAQFASDLAKVSGGGNTGTAPAKPSTPAPKPSTPSTNLDKLGLVDYMNAKKMDSSYSNRDKLAKQYGIANYSGTASQNTTLLSKIKGGAPKPSTPAPKPSTSTAKKIYFPPNKGNWSVYPTNKAPVKANAIGAINPTKFGGLTYTIQKDRGNGVYEIQTDQFGRVQVYGAPSTGAVIKKTRSSRAGLQFPVGRVHRLLRKGIGKFLHSAKKFGKAFVGEIMNS
- Average log reduction, Listeria (Listeria bacteria): +++ (+++: 4 or more logs)

B2: STM0016-LL37: STM0016 fusion variant with one peptide stretch, LL37 (protein)
chain: MNPIIDGIIALEGGYVFNPKDKGGATHWGITEATARAHGYAGDMRDLTHAEAYAILEEDYWIKPGFDVISTLSWPVSFELCDAAVNIGAYHPSAWLQRWLNVFNHEGKRYPDIHVDGNIGPRTLAALEHYLAWRGQEGEAVLVKALNCSQGTYYLNVAEKNHNNEQFIYGWIKNRVTLLGDFFRKSKEKIGKEFKRIVQRIKDFLRNLVPRTES
- Average log reduction, Salmonella (Salmonella bacteria): + (+: 1 log)

B3: P1y511-Magainin: Ply511 fusion variant with one peptide stretch, Magainin (protein)
chain: MVKYTVENKIIAGLPKGKLKGANFVIAHETANSKSTIDNEVSYMTRNWKNAFVTHFVGGGGRVVQVANVNYVSWGAGQYANSYSYAQVELCRTSNATTFKKDYEVYCQLLVDLAKKAGIPITLDSGSKTSDKGIKSHKWVADKLGGTTHQDPYAYLSSWGISKAQFASDLAKVSGGGNTGTAPAKPSTPAPKPSTPSTNLDKLGLVDYMNAKKMDSSYSNRDKLAKQYGIANYSGTASQNTTLLSKIKGGAPKPSTPAPKPSTSTAKKIYFPPNKGNWSVYPTNKAPVKANAIGAINPTKFGGLTYTIQKDRGNGVYEIQTDQFGRVQVYGAPSTGAVIKKGIGKFLHSAKKFGKAFVGEIMNS
- Average log reduction, Listeria (Listeria bacteria): ++ (++: 2-3 log)

B4: P1y511-BuforinII: Ply511 fusion variant with one peptide stretch, Buforin II (protein)
chain: MVKYTVENKIIAGLPKGKLKGANFVIAHETANSKSTIDNEVSYMTRNWKNAFVTHFVGGGGRVVQVANVNYVSWGAGQYANSYSYAQVELCRTSNATTFKKDYEVYCQLLVDLAKKAGIPITLDSGSKTSDKGIKSHKWVADKLGGTTHQDPYAYLSSWGISKAQFASDLAKVSGGGNTGTAPAKPSTPAPKPSTPSTNLDKLGLVDYMNAKKMDSSYSNRDKLAKQYGIANYSGTASQNTTLLSKIKGGAPKPSTPAPKPSTSTAKKIYFPPNKGNWSVYPTNKAPVKANAIGAINPTKFGGLTYTIQKDRGNGVYEIQTDQFGRVQVYGAPSTGAVIKKTRSSRAGLQFPVGRVHRLLRK
- Average log reduction, Listeria (Listeria bacteria): ++ (++: 2-3 log)
